Reference: the supplement of paper PMC10307832

Legend:
Assay in all cases: relative viability (nuclei count vs DMSO), 5 days (fraction); higher = more cells survive
[1] = compound: CC(C)Oc1cc(Nc2nc(N[C@@H](C)c3ccc(F)cn3)ncc2Cl)n[nH]1 [AZ23]
In short: (§1)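 Viability was read as treated-well nuclei divided by vehicle-well nuclei, using the median across plates. Lung cancer cell lines in 1536-well plates were kept overnight at 37 °C, pinned with five √10-spaced library-drug doses, and after 5 days were Hoechst-stained, imaged at 4× and counted in MetaXpress. Plates passed only with control CV below 25% and at least one doubling.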

[2] = compound: CC(C)S(=O)(=O)C1=CC=CC=C1NC2=NC(=NC(=C2Cl)N)NC3=C(C=C(C=C3)N4CCC(CC4)C(=O)N)OC [HG-5-88-01]
In short: as §1

[3] = compound: CCCCCCCCCCCC1=C(O)C(=O)C=C(O)C1=O [Embelin]
In short: as §1

[4] = compound: C[C@@H]1CN(CC(=O)Nc2ccc3c(c2)Cc2cccc(-c4cc(=O)cc(N5CCOCC5)o4)c2S3)C[C@H](C)O1
In short: as §1

[5] = compound: Clc1ccc(Nc2nnc(Cc3ccncc3)c3ccccc23)cc1 [Vatalanib]
In short: as §1

Cell Line	relative viability ([1]; 0.03162 µM)	relative viability ([1]; 0.3162 µM)	relative viability ([2]; 0.04 µM)	relative viability ([2]; 0.1265 µM)	relative viability ([2]; 0.4 µM)	relative viability ([2]; 1.265 µM)	relative viability ([2]; 4 µM)	relative viability ([3]; 0.08 µM)	relative viability ([3]; 0.8 µM)	relative viability ([3]; 2.53 µM)	relative viability ([3]; 8 µM)	relative viability ([4]; 0.04 µM)	relative viability ([4]; 0.1265 µM)	relative viability ([4]; 0.4 µM)	relative viability ([4]; 4 µM)	relative viability ([5]; 0.04 µM)	relative viability ([5]; 0.1265 µM)	relative viability ([5]; 0.4 µM)	relative viability ([5]; 1.265 µM)	relative viability ([5]; 4 µM)	relative viability ([1]; 0.01 µM)
SK-LU-1	1.14	1.08	0.982	1.04	0.998	0.876	0.708	1.13	1.19	1.26	0.928	1.04	1.04	1.1	0.853	1.09	0.993	1.14	1.04	1.05	–
SK-MES-1	1.08	1.08	0.983	0.962	0.966	0.924	1.05	1.02	1.07	1.13	0.954	1.09	1.05	0.923	0.8	1.03	0.913	1.09	0.971	0.893	0.745
SW 900	0.635	0.883	0.901	0.881	0.86	0.888	0.497	0.866	0.954	1.01	0.581	0.854	0.899	0.954	0.708	0.698	0.807	1.07	0.737	1.03	0.764
SW 1573	1.16	0.881	0.962	0.978	0.969	0.834	0.864	0.972	1.33	1.16	1.02	0.992	1.04	0.922	1.06	0.957	0.995	1.19	0.868	1.03	1.15
UMC-11	1.01	0.968	0.887	1.02	0.843	0.943	0.807	0.987	1.07	1.02	0.974	0.969	0.938	1.01	0.865	1	0.953	0.954	0.984	1.03	0.954
